Data published in the NIST ThermoML archive (doi:10.1016/j.jct.2017.03.006).

Experiment: xn = mol fraction of the nth substance listed
Settings: Liquid; for viscosity: Concentric cylinders viscometry; for mass density: Vibrating tube method

Cc1ccc(C)c(C)c1 [1,2,4-trimethylbenzene] + CCCCO
Settings	mass density, 100 kPa [kg/m3]	mass density, 1000 kPa [kg/m3]	mass density, 5000 kPa [kg/m3]	mass density, 10000 kPa [kg/m3]	mass density, 20000 kPa [kg/m3]	mass density, 30000 kPa [kg/m3]	mass density, 40000 kPa [kg/m3]	viscosity, 100 kPa [mPa·s]
323.15 K, x2 = 0.7975	–	–	–	–	–	–	–	1.027
323.15 K, x2 = 0.9131	–	–	–	–	–	–	–	1.22
333.15 K, x2 = 0	843.6	844.4	847.6	851.4	858.6	865.3	871.6	0.562
333.15 K, x2 = 0.1002	–	–	–	–	–	–	–	0.552
333.15 K, x2 = 0.1005	836.9	837.7	841	844.9	852.4	859.2	865.5	–
333.15 K, x2 = 0.2261	830.2	831	834.4	838.3	845.8	852.8	859.2	–
333.15 K, x2 = 0.2327	–	–	–	–	–	–	–	0.564
333.15 K, x2 = 0.2999	826.1	826.9	830.3	834.2	841.8	848.7	855.2	–
333.15 K, x2 = 0.3	–	–	–	–	–	–	–	0.582
333.15 K, x2 = 0.3966	820.6	821.4	824.8	828.8	836.4	843.4	849.8	–
333.15 K, x2 = 0.3969	–	–	–	–	–	–	–	0.6
333.15 K, x2 = 0.5289	812.8	813.6	817.1	821.1	828.7	835.7	842.2	–
333.15 K, x2 = 0.53	–	–	–	–	–	–	–	0.652
333.15 K, x2 = 0.6367	805.8	806.6	810.1	814.2	821.9	828.9	835.5	–
333.15 K, x2 = 0.637	–	–	–	–	–	–	–	0.711
333.15 K, x2 = 0.7249	799.8	800.7	804.2	808.3	816	823.1	829.6	–
333.15 K, x2 = 0.7975	–	–	–	–	–	–	–	0.853
333.15 K, x2 = 0.7977	794.5	795.3	798.8	803	810.7	817.8	824.4	–
333.15 K, x2 = 0.9131	785.6	786.4	789.9	794.1	801.9	809.1	–	0.996
